The results in this text go back to patent US20200291018A1, “TAM KINASE INHIBITORS” (SYROS PHARMACEUTICALS, INC., priority 2017, published 2020).

One assay addresses T1, TYRO3 (Homo sapiens, UniProt Q06418).
T1 sequence (Q06418 41-890): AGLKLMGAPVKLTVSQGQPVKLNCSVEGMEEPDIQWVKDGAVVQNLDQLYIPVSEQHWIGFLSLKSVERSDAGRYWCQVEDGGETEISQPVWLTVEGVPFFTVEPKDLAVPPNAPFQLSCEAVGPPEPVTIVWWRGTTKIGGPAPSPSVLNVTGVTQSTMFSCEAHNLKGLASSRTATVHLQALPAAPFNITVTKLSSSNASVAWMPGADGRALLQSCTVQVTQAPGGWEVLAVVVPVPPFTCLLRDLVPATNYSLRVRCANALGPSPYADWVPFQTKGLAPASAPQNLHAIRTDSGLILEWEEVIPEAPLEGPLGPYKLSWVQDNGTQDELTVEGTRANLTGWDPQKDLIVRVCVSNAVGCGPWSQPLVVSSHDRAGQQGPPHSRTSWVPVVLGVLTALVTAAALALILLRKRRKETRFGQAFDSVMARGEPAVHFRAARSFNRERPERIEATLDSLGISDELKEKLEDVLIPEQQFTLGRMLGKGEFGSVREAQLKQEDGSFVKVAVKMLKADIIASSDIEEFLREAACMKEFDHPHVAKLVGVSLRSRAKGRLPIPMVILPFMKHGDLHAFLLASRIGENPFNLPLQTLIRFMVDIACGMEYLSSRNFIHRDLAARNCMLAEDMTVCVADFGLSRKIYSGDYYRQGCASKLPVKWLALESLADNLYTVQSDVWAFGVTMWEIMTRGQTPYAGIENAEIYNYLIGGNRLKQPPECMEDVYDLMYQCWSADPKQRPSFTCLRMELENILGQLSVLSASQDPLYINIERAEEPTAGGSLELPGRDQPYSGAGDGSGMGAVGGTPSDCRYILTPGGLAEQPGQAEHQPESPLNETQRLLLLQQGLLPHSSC
As to the kind of experiment: TR-FRET kinase activity assay, TYRO3. The assay is classed as biochemical. The following applies: ATP at Km, 60 minutes. In short, it runs like this:
(§1)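 Buffer 50 mM HEPES pH 7.5/10 mM MgCl2/1 mM EGTA/0.01% Brij 35/1 mM DTT, RT. Km ATP per kinase, labeled peptide, 60 min; 12.5 mM EDTA stop; Eu-Ab 30 min dark; TR-FRET → IC50.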

The next assay concerns the target T2, FLT3 (Homo sapiens, UniProt P36888).
T2 sequence (P36888 27-993): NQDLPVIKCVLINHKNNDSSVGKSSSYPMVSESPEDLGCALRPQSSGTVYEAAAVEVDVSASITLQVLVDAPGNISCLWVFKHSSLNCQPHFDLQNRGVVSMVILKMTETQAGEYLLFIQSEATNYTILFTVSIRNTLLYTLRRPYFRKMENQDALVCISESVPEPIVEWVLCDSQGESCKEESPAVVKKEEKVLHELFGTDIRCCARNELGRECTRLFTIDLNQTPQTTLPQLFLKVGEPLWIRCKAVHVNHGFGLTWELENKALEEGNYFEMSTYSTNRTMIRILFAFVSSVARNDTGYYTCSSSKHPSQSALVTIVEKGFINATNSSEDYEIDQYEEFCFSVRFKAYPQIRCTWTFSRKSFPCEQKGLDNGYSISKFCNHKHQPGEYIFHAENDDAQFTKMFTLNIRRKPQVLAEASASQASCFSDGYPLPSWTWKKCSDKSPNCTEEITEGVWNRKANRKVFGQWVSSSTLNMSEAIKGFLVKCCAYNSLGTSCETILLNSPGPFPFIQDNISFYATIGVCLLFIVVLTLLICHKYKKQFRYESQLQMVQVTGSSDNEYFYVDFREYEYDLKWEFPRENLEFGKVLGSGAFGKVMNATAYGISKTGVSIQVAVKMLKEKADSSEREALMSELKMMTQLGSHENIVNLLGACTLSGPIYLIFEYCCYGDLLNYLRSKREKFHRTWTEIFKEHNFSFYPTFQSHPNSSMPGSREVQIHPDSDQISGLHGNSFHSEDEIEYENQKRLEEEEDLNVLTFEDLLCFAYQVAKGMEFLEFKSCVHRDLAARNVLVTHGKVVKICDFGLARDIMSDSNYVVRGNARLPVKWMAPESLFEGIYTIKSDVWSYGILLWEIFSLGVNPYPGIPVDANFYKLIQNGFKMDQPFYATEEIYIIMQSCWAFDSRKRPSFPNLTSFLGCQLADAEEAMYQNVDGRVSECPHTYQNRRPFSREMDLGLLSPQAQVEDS
The experiment in a line: TR-FRET kinase activity assay, FLT3. The assay is classed as biochemical. The note with it: ATP at Km, 60 minutes. In short, it runs like this: as §1
(In general: In TR-FRET formats the signal depends on donor and acceptor labels being close together.)

Where a name gives a salt, the structure may show the parent alone.

Usually IC50 stands for the concentration needed to halve the response being measured. `CCCCNc1ncc2c(=O)n(-c3ccc(CN4CCOCC4)cc3)cc([C@H]3CC[C@H](O)CC3)c2n1` [Compound 101]: the half-maximal inhibitory concentration (IC50) at TYRO3 and at FLT3 was 100 to 1000 nM in each case.

`CCCCNc1ncc2c(NCc3ccc(F)cc3)ncc([C@H]3CC[C@H](O)CC3)c2n1` [Compound 103, 4-[2-(butylamino)-5-[(4-fluorophenyl)methylamino]pyrido[4,3-d]pyrimidin-8-yl]cyclohexanol hydrochloride]: the concentration for half-maximal inhibition (IC50) against TYRO3 and against FLT3 was ≤ 100 nM each time.

Turning to `CCCCNc1ncc2c(OC3CCOCC3)ncc([C@H]3CC[C@H](O)CC3)c2n1` [Compound 104, (1r,4r)-4-(2-(butylamino)-5-((tetrahydro-2H-pyran-4-yl)oxy)pyrido[4,3-d]pyrimidin-8-yl)cyclohexanol], the IC50 against TYRO3 and against FLT3 was ≤ 100 nM each time.

Consider `CCCCNc1ncc2c(OC)ncc([C@H]3CC[C@H](O)CC3)c2n1` [Compound 127], for which the IC50 at TYRO3 and at FLT3 was ≤ 100 nM in each case.

For `CCCC(C)Nc1ncc2c(=O)n(C3CCN(C(C)=O)CC3)cc([C@H]3CC[C@H](O)CC3)c2n1` (some centres unmarked) [Compound 128, 6-(1-acetylpiperidin-4-yl)-8-((1r,4r)-4-hydroxycyclohexyl)-2-(pentan-2-ylamino)pyrido[4,3-d]pyrimidin-5(6H)-one hydrochloride], the half-inhibitory concentration (IC50) is ≤ 100 nM against TYRO3 and 1000 to 10000 nM against FLT3.

For `CCCCNc1ncc2c(OC3CCNCC3)ncc([C@H]3CC[C@H](O)CC3)c2n1` [Compound 129], the concentration for half-maximal inhibition (IC50) on TYRO3 and on FLT3 was ≤ 100 nM each time.

For `CCCCC[C@H](C)Nc1ncc2c(OC3CCNCC3)ncc([C@H]3CC[C@H](O)CC3)c2n1` [Compound 130], the half-maximal inhibitory concentration (IC50) at TYRO3 was ≤ 100 nM; on FLT3 it was 1000 to 10000 nM.

Regarding `CCCCNc1ncc2c(OC3CCN(C)CC3)ncc([C@H]3CC[C@H](O)CC3)c2n1` [Compound 131], the IC50 against TYRO3 and against FLT3 was ≤ 100 nM each time.

Regarding `O[C@H]1CC[C@H](c2cnc(OC3CCOCC3)c3cnc(NC4CCCC4)nc32)CC1` [Compound 132], the IC50 at TYRO3 and on FLT3 was ≤ 100 nM throughout.

For the molecule `CCCC(C)Nc1ncc2c(OC3CCOCC3)ncc([C@H]3CC[C@H](O)CC3)c2n1` (some centres unmarked) [Compound 133], the IC50 is ≤ 100 nM against TYRO3 and 1000 to 10000 nM against FLT3.

For the molecule `O[C@H]1CC[C@H](c2cnc(OC3CCOCC3)c3cnc(Nc4ccc(Cl)cc4)nc32)CC1` [Compound 134, (1r,4r)-4-(2-((4-chlorophenyl)amino)-5-((tetrahydro-2H-pyran-4-yl)oxy)pyrido[4,3-d]pyrimidin-8-yl)cyclohexan-1-ol], the IC50 at TYRO3 was ≤ 100 nM; against FLT3, 100 to 1000 nM.

Regarding `CC(C)Nc1ncc2c(OC3CCNCC3)ncc([C@H]3CC[C@H](O)CC3)c2n1` [Compound 135], the figures for the half-inhibitory concentration (IC50) at TYRO3 and at FLT3 were ≤ 100 nM and 1000 to 10000 nM, respectively.

On to `O[C@H]1CC[C@H](c2cnc(OC3CCNCC3)c3cnc(N[C@H]4CCOC4)nc32)CC1` [Compound 136], for which the figures for the IC50 against TYRO3 and on FLT3 were ≤ 100 nM and 1000 to 10000 nM, respectively.

In the case of `C[C@@H](CO)Nc1ncc2c(OC3CCOCC3)ncc([C@H]3CC[C@H](O)CC3)c2n1` [Compound 137], the 50% inhibitory concentration (IC50) at TYRO3 fell in the range of 100 to 1000 nM; against FLT3, 1000 to 10000 nM.

Consider `CCCC(C)Nc1ncc2c(=O)n(C3CCN(S(C)(=O)=O)CC3)cc([C@H]3CC[C@@H](O)CC3)c2n1` (some centres unmarked) [Compound 138], for which the IC50 against TYRO3 is ≤ 100 nM; against FLT3, 1000 to 10000 nM.

Turning to `CCCC(C)Nc1ncc2c(O[C@H]3CC[C@H](O)CC3)ncc([C@H]3CC[C@H](O)CC3)c2n1` (some centres unmarked) [Compound 139], the IC50 against TYRO3 was ≤ 100 nM; at FLT3 it was 100 to 1000 nM.

Consider `CCC(C)Nc1ncc2c(OC3CCOCC3)ncc([C@H]3CC[C@H](O)CC3)c2n1` (some centres unmarked) [Compound 140], for which the IC50 at TYRO3 is ≤ 100 nM; against FLT3, 1000 to 10000 nM.

As for `CCCC(C)Nc1ncc2c(OC3CCS(=O)(=O)CC3)ncc([C@H]3CC[C@H](O)CC3)c2n1` (some centres unmarked) [Compound 141], the results for the IC50 against TYRO3 and against FLT3 were ≤ 100 nM and 1000 to 10000 nM, respectively.

Regarding `CCCC(C)Nc1ncc2c(OC3CCS(=O)(=O)CC3)ncc([C@H]3CC[C@@H](O)CC3)c2n1` (some centres unmarked) [Compound 142], the IC50 against TYRO3 was 100 to 1000 nM; against FLT3, 1000 to 10000 nM.

Regarding `CCCC(C)Nc1ncc2c(OC3CCN(S(C)(=O)=O)CC3)ncc([C@H]3CC[C@H](O)CC3)c2n1` (some centres unmarked) [Compound 143], the results for the IC50 against TYRO3 and against FLT3 were ≤ 100 nM and 1000 to 10000 nM, respectively.

In the case of `CC1(C)CC(Nc2ncc3c(OC4CCOCC4)ncc([C@H]4CC[C@H](O)CC4)c3n2)C1` [Compound 144], the figures for the 50% inhibitory concentration (IC50) against TYRO3 and against FLT3 were 100 to 1000 nM and ≤ 100 nM, respectively.

As for `COC[C@@H](C)Nc1ncc2c(OC3CCOCC3)ncc([C@H]3CC[C@H](O)CC3)c2n1` [Compound 145], the figures for the half-maximal inhibitory concentration (IC50) on TYRO3 and against FLT3 were ≤ 100 nM and 1000 to 10000 nM, respectively.

In the case of `CCCC(C)Nc1ncc2c(N(C)C3CCN(C)CC3)ncc([C@H]3CC[C@H](O)CC3)c2n1` (some centres unmarked) [Compound 146], the IC50 is ≤ 100 nM against TYRO3 and 1000 to 10000 nM on FLT3.

Consider `CCCC(C)Nc1ncc2c(OC3CCC(OC)CC3)ncc([C@H]3CC[C@H](O)CC3)c2n1` (some centres unmarked) [Compound 147], for which the IC50 is ≤ 100 nM on TYRO3 and 1000 to 10000 nM against FLT3.

Turning to `CCCC(C)Nc1ncc2c(O[C@H]3CC[C@@H](O)CC3)ncc([C@H]3CC[C@H](O)CC3)c2n1` (some centres unmarked) [Compound 148], the half-inhibitory concentration (IC50) on TYRO3 is ≤ 100 nM; on FLT3 it was 1000 to 10000 nM.

Take `CCCC(C)Nc1ncc2c(=O)n(C3CCN(CC(=O)N(C)C)CC3)cc([C@H]3CC[C@@H](O)CC3)c2n1` (some centres unmarked) [Compound 149]: the IC50 against TYRO3 was ≤ 100 nM; against FLT3, 1000 to 10000 nM.

In the case of `CCCC(C)Nc1ncc2c(=O)n(C3CCN(CCOC)CC3)cc([C@H]3CC[C@H](O)CC3)c2n1` (some centres unmarked) [Compound 150], the IC50 at TYRO3 is ≤ 100 nM; at FLT3, 1000 to 10000 nM.

`CCCC(C)Nc1ncc2c(=O)n(C3CCN(CCC(=O)N(C)C)CC3)cc([C@H]3CC[C@H](O)CC3)c2n1` (some centres unmarked) [Compound 151]: the IC50 is ≤ 100 nM against TYRO3 and 1000 to 10000 nM on FLT3.

Regarding `CCC[C@@H](C)Nc1ncc2c(=O)n(C3CCNCC3)cc([C@H]3CC[C@H](O)CC3)c2n1` [Compound 152], the IC50 against TYRO3 is ≤ 100 nM; on FLT3 it was 1000 to 10000 nM.

In the case of `CCCC(C)Nc1ncc2c(OC3CCC(F)(F)CC3)ncc([C@H]3CC[C@H](O)CC3)c2n1` (some centres unmarked) [Compound 153], the 50% inhibitory concentration (IC50) against TYRO3 was 100 to 1000 nM; against FLT3, 1000 to 10000 nM.

For the molecule `CCCC(C)Nc1ncc2c(NC3CCN(C)CC3)ncc([C@H]3CC[C@H](O)CC3)c2n1` (some centres unmarked) [Compound 154], the IC50 was ≤ 100 nM against TYRO3 and 100 to 1000 nM against FLT3.

With `CCCC(C)Nc1ncc2c(N3CCC(NC)CC3)ncc([C@H]3CC[C@H](O)CC3)c2n1` (some centres unmarked) [Compound 155], the IC50 was ≤ 100 nM on TYRO3 and 1000 to 10000 nM on FLT3.

Regarding `CCCC(C)Nc1ncc2c(N3CC[C@@H](N(C)C)C3)ncc([C@H]3CC[C@H](O)CC3)c2n1` (some centres unmarked) [Compound 156], the figures for the 50% inhibitory concentration (IC50) at TYRO3 and at FLT3 were ≤ 100 nM and 1000 to 10000 nM, respectively.

In the case of `CCCC(C)Nc1ncc2c(OC[C@H]3CC[C@@H](O)CC3)ncc([C@H]3CC[C@H](O)CC3)c2n1` (some centres unmarked) [Compound 157], the IC50 on TYRO3 was ≤ 100 nM; against FLT3 it was 1000 to 10000 nM.
